According to US20230104936A1, “TRPML MODULATORS” (Casma Therapeutics, Inc., priority 2019, published 2023):

Tested on: TFEB
Experiment: TFEB nuclear translocation assay, HeLa wt cells
Format: cell-based
Conditions: 2 hrs compound treatment, Table 1 does not say HeLa wt or TRPML1 KO
Summary of the method: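 HeLa wt or TRPML1 KO cells treated 2 hrs with compounds at 37° C, fixed in 4% PFA, immunostained with anti-TFEB plus Alexa 488 secondary and Hoechst. Imaged at ×20, four fields/well; read-out is nuclear/perinuclear-ring TFEB intensity ratio, reported as AC50.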

Structure (SMILES)	AC50 (Homo sapiens, HeLa, 2 h) [µM]	AC50 [µM]
Cc1nn(S(=O)(=O)c2ccc(S(=O)(=O)N(C)C)cc2)cc1N1CCN(c2ccc(Cl)cc2F)CC1=O [Compound A-306, 4-({4-[4-(4-chloro-2-fluorophenyl)-2-oxopiperazin-1-yl]-3-methyl-1H-pyrazol-1-yl}sulfonyl)-N,N-dimethylbenzene-1-sulfonamide]	≥ 10	–
Cn1ccc(S(=O)(=O)Nc2ccccc2N2CCN(c3ccc(Cl)cc3F)CC2)n1 [Compound A-21, N-{2-[4-(4-chloro-2-fluorophenyl)piperazin-1-yl]phenyl}-1-methyl-1H-pyrazole-3-sulfonamide]	2.01 to 8	–
COCC1(C)CCN(c2ccccc2NS(=O)(=O)Cc2ccccc2OC)CC1 [Compound A-595, N-{2-[4-(methoxymethyl)-4-methylpiperidin-1-yl]phenyl}-1-(2-methoxyphenyl)methanesulfonamide]	2.01 to 8	–
C[C@@H](c1cccc(F)c1N1CCCCC1)S(=O)(=O)c1ccc(S(=N)(=O)N(C)C)cc1 (single isomer, unassigned) [Compound A-930]	–	2.01 to 8
N#Cc1ccc(S(=O)(=O)Nc2ccccc2N2CCC(c3ccc(Cl)cc3F)CC2)cc1 [Compound A-101, N-{2-[4-(4-chloro-2-fluorophenyl)piperidin-1-yl]phenyl}-4-cyanobenzene-1-sulfonamide]	2.01 to 8	–
Cc1ccc(F)c(CS(=O)(=O)Nc2ccccc2N2CCC3(CC2)COC(C)(C)C3)c1 [Compound A-679, N-(2-{3,3-dimethyl-2-oxa-8-azaspiro[4.5]decan-8-yl}phenyl)-1-(2-fluoro-5-methylphenyl)methanesulfonamide]	≤ 2	–
CC(C)(C)C(=O)N1CCN(c2ccccc2NS(=O)(=O)c2ccc(C(C)(C)C)cc2)CC1 [Compound A-516, 4-tert-butyl-N-{2-[4-(2,2-dimethylpropanoyl)piperazin-1-yl]phenyl}benzene-1-sulfonamide]	2.01 to 8	–
CCS(=O)(=O)c1ccc(S(=O)(=O)Nc2ccccc2N2CCC(c3c(F)cccc3F)CC2)cc1 [Compound A-198, N-{2-[4-(2,6-difluorophenyl)piperidin-1-yl]phenyl}-4-(ethanesulfonyl)benzene-1-sulfonamide]	≤ 2	–
CC(C1CCN(c2c(F)cccc2NS(=O)(=O)c2ccc(S(=N)(=O)N(C)C)cc2)CC1)N1C[C@@H](C)O[C@@H](C)C1 (single isomer, unassigned) [Compound A-871]	≤ 2	–
CC(c1cc(Cl)cnc1N1CCC(CN2CCC(F)(F)CC2)CC1)S(=O)(=O)c1ccc2c(c1)CCC2 (single isomer, unassigned) [Compound A-994, 5-chloro-2-(4-((4,4-difluoropiperidin-1-yl)methyl)piperidin-1-yl)-3-(1-((2,3-dihydro-1H-inden-5-yl)sulfonyl)ethyl)pyridine]	–	≤ 2
CNC(=O)C1(c2ccc(F)cc2F)CCN(c2ccccc2NS(=O)(=O)c2ccc(S(=O)(=O)N(C)C)cc2)CC1 [Compound A-216, 4-(2,4-difluorophenyl)-1-{2-[4-(dimethylsulfamoyl)benzenesulfonamido]phenyl}-N-methylpiperidine-4-carboxamide]	≤ 2	–
C[C@H]1CN(c2ccccc2NS(=O)(=O)c2ccc(S(=O)(=O)N(C)C)cc2)CCN1C(=O)c1cscn1 [Compound A-416, N1,N1-dimethyl-N4-{2-[(3S)-3-methyl-4-(1,3-thiazole-4-carbonyl)piperazin-1-yl]phenyl}benzene-1,4-disulfonamide]	2.01 to 8	–
CN(C)S(=O)(=O)c1ccc(S(=O)(=O)Nc2nnc(N3CCN(c4ccc(Cl)cc4F)CC3)s2)cc1 [Compound A-36, N4-{5-[4-(4-chloro-2-fluorophenyl)piperazin-1-yl]-1,3,4-thiadiazol-2-yl}-N1,N1-dimethylbenzene-1,4-disulfonamide]	≤ 2	–
C[C@H](c1cccc(F)c1N1CCC(C2(N3CCOCC3)CC2)CC1)S(=O)(=O)c1ccc(S(=N)(=O)N(C)C)cc1 (single isomer, unassigned) [Compound A-893]	–	≥ 10
CN(C)S(=N)(=O)c1ccc(S(=O)(=O)Nc2cc(F)ccc2N2CCC(c3c(F)cccc3F)CC2)cc1 (stereo not shown) [Compound A-228, 4-({2-[4-(2,6-difluorophenyl)piperidin-1-yl]-5-fluorophenyl}sulfamoyl)-N,N-dimethylbenzene-1-sulfonoimidamide]	≤ 2	–
Cc1cnc(N2CCC(CN3CCC(F)(F)CC3)CC2)c(C(C)S(=O)(=O)c2ccc3c(c2)CCC3)c1 (single isomer, unassigned) [Compound A-999, 2-(4-((4,4-difluoropiperidin-1-yl)methyl)piperidin-1-yl)-3-(1-((2,3-dihydro-1H-inden-5-yl)sulfonyl)ethyl)-5-methylpyridine]	–	≤ 2
CN(C)S(=O)(=O)c1ccc(S(=O)(=O)Nc2ccccc2N2CCC(C)(C(=O)NC(C)(C)C)CC2)cc1 [Compound A-361, N-tert-butyl-1-{2-[4-(dimethylsulfamoyl)benzenesulfonamido]phenyl}-4-methylpiperidine-4-carboxamide]	≤ 2	–

Structure (SMILES)	AC50 (Homo sapiens, HeLa, 2 h) [µM]	AC50 [µM]
COCC1(C)CCN(c2ccccc2NS(=O)(=O)c2ccc(OCC3CC3)cc2)CC1 [Compound A-555, 4-(cyclopropylmethoxy)-N-{2-[4-(methoxymethyl)-4-methylpiperidin-1-yl]phenyl}benzene-1-sulfonamide]	2.01 to 8	–
CC(C)C(=O)c1ccc(S(=O)(=O)Nc2ccccc2N2CCC3(CC2)COC(C)(C)C3)cc1 [Compound A-657, N-(2-{3,3-dimethyl-2-oxa-8-azaspiro[4.5]decan-8-yl}phenyl)-4-(2-methylpropanoyl)benzene-1-sulfonamide]	8.01 to 9.99	–
COc1cccc(S(=O)(=O)Nc2cccc(Cl)c2N2CCOCC2)c1 [Compound A-367, N-[3-chloro-2-(morpholin-4-yl)phenyl]-3-methoxybenzene-1-sulfonamide]	2.01 to 8	–
CS(=N)(=O)c1ccc(S(=O)(=O)Nc2ccccc2N2CCC(O)(c3ccc(Cl)cc3F)CC2)cc1 (stereo not shown) [Compound A-152, N-{2-[4-(4-chloro-2-fluorophenyl)-4-hydroxypiperidin-1-yl]phenyl}-4-[iimino(methyl)oxo-λ^6-sulfanyl]benzene-1-sulfonamide]	≥ 10	–
CCN(CC)CC1CCN(c2ccccc2NS(=O)(=O)c2ccc(S(=O)(=O)N(C)C)cc2)CC1 [Compound A-549, N4-(2-{4-[(diethylamino)methyl]piperidin-1-yl}phenyl)-N1,N1-dimethylbenzene-1,4-disulfonamide]	2.01 to 8	–
CN1Cc2cc(F)ccc2C12CCN(c1ccccc1NS(=O)(=O)c1ccc(S(=O)(=O)N(C)C)cc1)CC2 [Compound A-310, N4-(2-{5-fluoro-2-methyl-2,3-dihydrospiro[isoindole-1,4′-piperidin]-1′-yl}phenyl)-N1,N1-dimethylbenzene-1,4-disulfonamide; formic acid]	≤ 2	–
CC(c1cccc(F)c1N1CCCCC1)S(=O)(=O)c1ccc(S2(=O)=NCCC2)cc1 (single isomer, unassigned) [Compound A-991, 1-(4-((1-(3-fluoro-2-(piperidin-1-yl)phenyl)ethyl)sulfonyl)phenyl)-4,5-dihydro-3H-isothiazole 1-oxide]	–	2.01 to 8
COc1ccc(S(=O)(=O)Nc2ccccc2N2CCC(Cc3ccc(F)cc3F)C2)cc1 (stereo not shown) [Compound A-197, N-(2-{3-[(2,4-difluorophenyl)methyl]pyrrolidin-1-yl}phenyl)-4-methoxybenzene-1-sulfonamide]	≥ 10	–
O=S(=O)(Nc1cccc(Cl)c1N1CCC(c2ccc(Cl)cc2F)CC1)c1ccc2c(c1)CCC2 [Compound A-341, N-{3-chloro-2-[4-(4-chloro-2-fluorophenyl)piperidin-1-yl]phenyl}-2,3-dihydro-1H-indene-5-sulfonamide]	≤ 2	–
CC(C1CCN(c2c(F)cccc2NS(=O)(=O)c2ccc(S(=O)(=O)N(C)C)cc2)CC1)N1C[C@@H](C)O[C@@H](C)C1 (stereo partly drawn) [Compound A-748, N4-[2-(4-{1-[(2R,6S)-2,6-dimethylmorpholin-4-yl]ethyl}piperidin-1-yl)-3-fluorophenyl]-N1,N1-dimethylbenzene-1,4-disulfonamide]	≤ 2	–
Cn1nccc1S(=O)(=O)Nc1cccc(Cl)c1N1CCOCC1 [Compound A-329, N-[3-chloro-2-(morpholin-4-yl)phenyl]-1-methyl-1H-pyrazole-5-sulfonamide]	≥ 10	–
O=S(=O)(Nc1cccc(Cl)c1N1CCN(c2ccc(Cl)cc2F)CC1)c1ccc2c(c1)CCC2 [Compound A-288, N-{3-chloro-2-[4-(4-chloro-2-fluorophenyl)piperazin-1-yl]phenyl}-2,3-dihydro-1H-indene-5-sulfonamide]	≤ 2	–
CC(C1CCN(c2c(F)cccc2NS(=O)(=O)c2ccc(S(=N)(=O)N(C)C)cc2)CC1)N1C[C@@H](C)O[C@@H](C)C1 (single isomer, unassigned) [Compound A-872]	–	≤ 2
CN(C)S(=O)(=O)c1ccc(S(=O)(=O)Nc2cccc(F)c2N2CCC(N)(C(F)(F)F)CC2)cc1 [Compound A-821, N4-{2-[4-amino-4-(trifluoromethyl)piperidin-1-yl]-3-fluorophenyl}-N1,N1-dimethylbenzene-1,4-disulfonamide]	≤ 2	–
CC(C)(C)C(=O)N1CCN(c2ccccc2NS(=O)(=O)c2ccc(C(F)(F)C(F)(F)F)cc2)CC1 [Compound A-537, N-{2-[4-(2,2-dimethylpropanoyl)piperazin-1-yl]phenyl}-4-(1,1,2,2,2-pentafluoroethyl)benzene-1-sulfonamide]	8.01 to 9.99	–
O=S(=O)(Nc1cc(Cl)ccc1N1CCCC2(CCCOC2)C1)c1ccc2c(c1)CCC2 (stereo not shown) [Compound A-347, N-(5-chloro-2-{2-oxa-8-azaspiro[5.5]undecan-8-yl}phenyl)-2,3-dihydro-1H-indene-5-sulfonamide]	≤ 2	–
CN(C)CC1(c2ccc(F)cc2)CCN(c2ccccc2NS(=O)(=O)c2ccc(S(=O)(=O)N(C)C)cc2)CC1 [Compound A-231, N4-(2-{4-[(dimethylamino)methyl]-4-(4-fluorophenyl)piperidin-1-yl}phenyl)-N1,N1-dimethylbenzene-1,4-disulfonamide]	≤ 2	–
